Source: patent US9951064B2, “Azaindazole compounds as inhibitors of T790M containing EGFR mutants” (Genentech, Inc., priority 2013, dated 2018)

What was measured:
[1] = target: T1, phosphor-EGFR in H1975(L585R/T790M) mutant EGFR expressing cells (Homo sapiens, UniProt P00533, L858R/T790M); assay: H1975 pEGFR MSD cellular assay; type: cell-based; conditions: NCI-H1975 cells, serum starved, 1 hour compound incubation, pEGFR Tyr1068 MSD; read-out: HI975 pEGFR EC50
T1 construct: host or cells: NCI-H1975
T1 sequence (P00533 25-1210 T790M/L858R): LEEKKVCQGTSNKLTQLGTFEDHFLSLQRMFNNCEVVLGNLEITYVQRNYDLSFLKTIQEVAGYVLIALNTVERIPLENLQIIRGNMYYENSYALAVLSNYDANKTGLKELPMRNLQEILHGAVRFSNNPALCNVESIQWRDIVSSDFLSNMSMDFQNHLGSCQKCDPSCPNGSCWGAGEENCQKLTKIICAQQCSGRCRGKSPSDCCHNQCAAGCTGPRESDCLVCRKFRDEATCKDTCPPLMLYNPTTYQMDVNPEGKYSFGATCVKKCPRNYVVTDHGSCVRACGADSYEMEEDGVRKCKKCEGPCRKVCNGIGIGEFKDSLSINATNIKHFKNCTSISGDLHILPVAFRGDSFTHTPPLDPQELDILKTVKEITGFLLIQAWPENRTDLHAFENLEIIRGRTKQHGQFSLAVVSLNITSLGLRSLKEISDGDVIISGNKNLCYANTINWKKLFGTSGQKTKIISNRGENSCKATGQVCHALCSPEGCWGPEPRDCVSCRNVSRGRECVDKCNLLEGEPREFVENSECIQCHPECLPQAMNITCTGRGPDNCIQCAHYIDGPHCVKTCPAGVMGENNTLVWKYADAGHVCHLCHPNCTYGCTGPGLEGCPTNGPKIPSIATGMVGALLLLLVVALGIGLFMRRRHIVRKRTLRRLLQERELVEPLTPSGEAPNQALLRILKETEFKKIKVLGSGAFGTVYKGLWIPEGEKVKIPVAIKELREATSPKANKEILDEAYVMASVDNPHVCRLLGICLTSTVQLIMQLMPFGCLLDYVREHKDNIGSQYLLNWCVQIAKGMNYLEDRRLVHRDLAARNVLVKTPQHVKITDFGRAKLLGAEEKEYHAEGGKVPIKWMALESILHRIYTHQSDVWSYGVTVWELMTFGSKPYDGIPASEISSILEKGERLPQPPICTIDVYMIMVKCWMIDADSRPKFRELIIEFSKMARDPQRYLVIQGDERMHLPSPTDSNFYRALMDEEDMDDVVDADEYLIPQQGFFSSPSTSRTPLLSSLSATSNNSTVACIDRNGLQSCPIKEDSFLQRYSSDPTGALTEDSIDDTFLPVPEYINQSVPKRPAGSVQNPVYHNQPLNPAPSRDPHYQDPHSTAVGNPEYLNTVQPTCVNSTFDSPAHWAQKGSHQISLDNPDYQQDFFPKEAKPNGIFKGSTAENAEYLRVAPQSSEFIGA
Method: H1975 pEGFR MSD Cellular Assays
These assays are intended for determining cellular. […] (Meso Scale Discovery Catalog# N31CB-1).
NCI-H1975 (ATCC Catalog# CRL-5908) cells are maintained in medium containing RPMI 1640, 10% FBS, 4 mM L-Glutamine, 1% Penicillin-Streptomycin, and 4.5 g/L Glucose. All cell culture reagents were purchased from Invitrogen/Gibco. Cells are cultured at 37° C. at 5% CO2 and split as recommended by ATCC.
Cell Plating and Serum Starvation:
H1975 cells are harvested and plated into sterile cell culture treated 384 well plates (Greiner catalog #781091) at a density of 30,000 cells/well in 50 ul culture medium and placed in a 37° C. at 5% CO2 incubator for six hours. After six hours, culture medium is aspirated and replaced with serum-free culture medium. Cells are then incubated with the serum-free medium overnight at 37° C. and 5% CO2.
The following day, test compounds are serially diluted in dimethyl sulfoxide (DMSO) and added to cells in serum free medium (final DMSO concentration 0.5%). Assay plates are then incubated for 1 hour at 37° C. and 5% CO2. Following 1 hour of compound incubation cells are then lysed and processed as per the MSD pEGFR assay kit protocol. Cell lysates are added to assay plates pre-coated with antibodies against phosphorylated EGFR. Phosphorylated EGFR in samples are allowed to bind to the capture antibodies overnight at 4° C. The detection antibody (anti-total EGFR, labeled with an electrochemiluminescent SULFO-TAG) is added to the bound lysate and incubated for 1 hour at room temperature. The MSD Read Buffer is added such that when a voltage is applied to the plate electrodes, the labels bound to the electrode surface emit light. The MSD Sector Instrument measures the intensity of the light, and quantitatively measures the amount of phosphorylated-EGFR in the sample. Percent inhibition of EGFR phosphorylation by varying concentrations of test compounds is calculated relative to untreated controls. EC50 values are calculated using the 4 parameter logistic nonlinear regression dose-response model.

[2] = target: T2, EGFR T790M L858R (Homo sapiens, UniProt P00533, L858R/T790M); assay: EGFR T790M L858R biochemical assay (Caliper mobility shift); conditions: 5 μM ATP; apparent Ki (Morrison fit) converted by Cheng-Prusoff, Km of ATP 1.3 μM
T2 construct: purchased Life Technologies PV4879
T2 sequence (P00533 25-1210 T790M/L858R): as above
Method: The exemplified compounds described herein were tested according to the assay below. The enzyme data reported in Tables 4-5 is generally a representative of multiple experiments.
Reactions proceed for 30 minutes at room temperature (22° C.) and are terminated with 80 mM 2,2′,2″,2′″-(ethane-1,2-diyldinitrilo)tetraacetic acid (EDTA). Product is detected using the Caliper mobility shift detection method where product and substrate are electrophoretically separated and measured.

[3] = tested on: H1975 (EGFR T790M/L858R) cell proliferation; assay: H1975 proliferation assay (Cell Titer-Glo); type: cell-based; conditions: Homo sapiens, NCI-H1975, 72 h, NCI-H1975 cells, 72 hour incubation, read-out: H1975 antiproliferative EC50
Method: H1975 Proliferation Assays
All cell culture reagents were purchased from Invitrogen/Gibco. Cells are cultured at 37° C. at 5% CO2 and split as recommended by ATCC.

SMILES	EC50 [1] [nM]	Ki [2] [nM]	EC50 [3] [nM]
CC(C)n1nc(N2CCS(=O)(=O)CC2)c2cnc(Nc3ccnc(-c4cnn(S(=O)(=O)C5CC5)c4)n3)cc21 [Example 1, 4-(6-((2-(1-(Cyclopropylsulfonyl)-1H-pyrazol-4-yl)pyrimidin-4-yl)amino)-1-isopropyl-1H-pyrazolo[4,3-c]pyridin-3-yl)thiomorpholine 1,1-dioxide]	606	609	2020
CC(C)n1nc(N2CC3(COC3)C2)c2cnc(Nc3ccnc(-c4cnn(CC5CC5)c4)n3)cc21 [Example 4, N-(2-(1-(Cyclopropylmethyl)-1H-pyrazol-4-yl)pyrimidin-4-yl)-1-isopropyl-3-(2-oxa-6-azaspiro[3.3]heptan-6-yl)-1H-pyrazolo[4,3-c]pyridin-6-amine]	219	3	732
CC(C)n1nc(N2CC3(COC3)C2)c2cnc(Nc3ccnc(-c4cnn(S(=O)(=O)C5CC5)c4)n3)cc21 [Example 5, N-(2-(1-(Cyclopropylsulfonyl)-1H-pyrazol-4-yl)pyrimidin-4-yl)-1-isopropyl-3-(2-oxa-6-azaspiro[3.3]heptan-6-yl)-1H-pyrazolo[4,3-c]pyridin-6-amine]	29.6	1	421
CC(C)n1nc(N2CCOCC2)c2cnc(Nc3ccnc(-c4cnn(CC5CC5)c4)n3)cc21 [Example 9, N-(2-(1-(Cyclopropylmethyl)-1H-pyrazol-4-yl)pyrimidin-4-yl)-1-isopropyl-3-morpholino-1H-pyrazolo[4,3-c]pyridin-6-amine]	382	5.2	1840
CCS(=O)(=O)n1cc(-c2nccc(Nc3cc4c(cn3)c(NC3COC3)nn4C(C)C)n2)cn1 [Example 16, N^6-(2-(1-(Ethylsulfonyl)-1H-pyrazol-4-yl)pyrimidin-4-yl)-1-isopropyl-N^3-(oxetan-3-yl)-1H-pyrazolo[4,3-c]pyridine-3,6-diamine]	79.7	1.1	921
CC(C)n1nc(C2CCOC2)c2cnc(Nc3ccnc(-c4cnn(S(=O)(=O)C5CC5)c4)n3)cc21 (stereo not drawn) [Example 19, N-(2-(1-(Cyclopropylsulfonyl)-1H-pyrazol-4-yl)pyrimidin-4-yl)-1-isopropyl-3-(tetrahydrofuran-3-yl)-1H-pyrazolo[4,3-c] pyridin-6-amine]	723	4.9	1460
CC(C)n1nc(N2CC[C@@H](C#N)C2)c2cnc(Nc3ccnc(-c4cnn(S(=O)(=O)C5CC5)c4)n3)cc21 [Example 28, (R)-1-(6-((2-(1-(Cyclopropylsulfonyl)-1H-pyrazol-4-yl)pyrimidin-4-yl)amino)-1-isopropyl-1H-pyrazolo[4,3-c]pyridin-3-yl)pyrrolidine-3-carbonitrile]	15.7	0.8	121
CC(C)n1nc(OC2CCOC2)c2cnc(Nc3ccnc(-c4cnn(S(=O)(=O)C5CC5)c4)n3)cc21 (stereo not drawn) [Example 29, N-(2-(1-(Cyclopropylsulfonyl)-1H-pyrazol-4-yl)pyrimidin-4-yl)-1-isopropyl-3-(tetrahydrofuran-3-yloxy)-1H-pyrazolo[4,3-c]pyridin-6-amine]	154	1.9	798
COCCNC(=O)C1CN(c2nn(C(C)C)c3cc(Nc4ccnc(-c5cnn(S(=O)(=O)C6CC6)c5)n4)ncc23)C1 [Example 30, 1-(6-(2-(1-(Cyclopropylsulfonyl)-1H-pyrazol-4-yl)pyrimidin-4-ylamino)-1-isopropyl-1H-pyrazolo[4,3-c]pyridin-3-yl)-N-(2-methoxyethyl)azetidine-3-carboxamide]	51.3	0.7	1450
CC(C)n1nc(N2CCCC2)c2cnc(Nc3ccnc(-c4cnn(CC5CC5)c4)n3)cc21 [Example 31, N-(2-(1-(cyclopropylmethyl)-1H-pyrazol-4-yl)pyrimidin-4-yl)-1-isopropyl-3-(pyrrolidin-1-yl)-1H-pyrazolo[4,3-c]pyridin-6-amine]	116	1.4	1060
CC(C)n1ncc2cnc(Nc3ccnc(-c4cnn(CC5CC5)c4)n3)cc21 [Example 32, N-(2-(1-(cyclopropylmethyl)-1H-pyrazol-4-yl)pyrimidin-4-yl)-1-isopropyl-1H-pyrazolo[4,3-c]pyridin-6-amine]	3830	35.6	498
CC(C)n1ncc2cnc(Nc3ccnc(N4CCC(O)C(C)(C)C4)n3)cc21 (stereo not drawn) [Example 33, 1-(4-((1-isopropyl-1H-pyrazolo[4,3-c]pyridin-6-yl)amino)pyrimidin-2-yl)-3,3-dimethylpiperidin-4-ol]	1020	7.5	110
CC(C)n1nc(N2CCOCC2)c2cnc(Nc3ccnc(N4CCC(O)C(C)(C)C4)n3)cc21 (stereo not drawn) [Example 34]	111	2.6	1410
CCS(=O)(=O)n1cc(-c2nccc(Nc3cc4c(cn3)c(N3CC(CO)C3)nn4C(C)C)n2)cn1 [Example 36, (1-(6-(2-(1-(ethylsulfonyl)-1H-pyrazol-4-yl)pyrimidin-4-ylamino)-1-isopropyl-1H-pyrazolo[4,3-c]pyridin-3-yl)azetidin-3-yl)methanol]	15.8	0.7	397
CC(C)n1nc(N[C@H]2CCOC2)c2cnc(Nc3ccnc(-c4cnn(S(=O)(=O)C5CC5)c4)n3)cc21 [Example 39, (S)-N6-(2-(1-(cyclopropylsulfonyl)-1H-pyrazol-4-yl)pyrimidin-4-yl)-1-isopropyl-N3-(tetrahydrofuran-3-yl)-1H-pyrazolo[4,3-c]pyridine-3,6-diamine]	71.1	1.1	373
CC(C)n1nc(N[C@@H]2CCOC2)c2cnc(Nc3ccnc(-c4cnn(S(=O)(=O)C5CC5)c4)n3)cc21 [Example 40, (R)-N6-(2-(1-(cyclopropylsulfonyl)-1H-pyrazol-4-yl)pyrimidin-4-yl)-1-isopropyl-N3-(tetrahydrofuran-3-yl)-1H-pyrazolo[4,3-c]pyridine-3,6-diamine]	84.8	1.1	775
CC(C)n1nc(N2CC[C@@H](CO)C2)c2cnc(Nc3ccnc(-c4cnn(S(=O)(=O)C5CC5)c4)n3)cc21 [Example 41, (R)-(1-(6-(2-(1-(cyclopropylsulfonyl)-1H-pyrazol-4-yl)pyrimidin-4-ylamino)-1-isopropyl-1H-pyrazolo[4,3-c]pyridin-3-yl)pyrrolidin-3-yl)methanol]	9.4	1.3	162
CC(C)n1nc(N2CC(O)C(F)C2)c2cnc(Nc3ccnc(-c4cnn(S(=O)(=O)C5CC5)c4)n3)cc21 (stereo not drawn) [Example 42, 1-(6-(2-(1-(cyclopropylsulfonyl)-1H-pyrazol-4-yl)pyrimidin-4-ylamino)-1-isopropyl-1H-pyrazolo[4,3-c]pyridin-3-yl)-trans-4-fluoropyrrolidin-3-ol]	12.5	1.1	240
CC(C)n1nc(N2CCN=C2O)c2cnc(Nc3ccnc(-c4cnn(S(=O)(=O)C5CC5)c4)n3)cc21 [Example 43, 1-(6-(2-(1-(cyclopropylsulfonyl)-1H-pyrazol-4-yl)pyrimidin-4-ylamino)-1-isopropyl-1H-pyrazolo[4,3-c]pyridin-3-yl)-4,5-dihydro-1H-imidazol-2-ol]	37.5	0.9	237
